Results taken from publication PMC4774911, “Biochemical Screening of Five Protein Kinases from Plasmodium falciparum against 14,000 Cell-Active Compounds” (PLoS ONE, 2016).
pIC50: −log10 of the molar value. Where “and” joins values, the source holds several entries; their conditions need not be identical. Identical values can stand only once.

Experiments:
Assay in all cases: biochemical
PIP5K3 = PIP5K3 (Homo sapiens, UniProt Q9Y2I7)
MAP4K5 = MAP4K5 (Homo sapiens, UniProt Q9Y4K4)
PTK2B = PTK2B (Homo sapiens, UniProt Q14289)
CAMK2D = CAMK2D (Homo sapiens, UniProt Q13557)
Sequence of CAMK2D (Q13557 whole entry): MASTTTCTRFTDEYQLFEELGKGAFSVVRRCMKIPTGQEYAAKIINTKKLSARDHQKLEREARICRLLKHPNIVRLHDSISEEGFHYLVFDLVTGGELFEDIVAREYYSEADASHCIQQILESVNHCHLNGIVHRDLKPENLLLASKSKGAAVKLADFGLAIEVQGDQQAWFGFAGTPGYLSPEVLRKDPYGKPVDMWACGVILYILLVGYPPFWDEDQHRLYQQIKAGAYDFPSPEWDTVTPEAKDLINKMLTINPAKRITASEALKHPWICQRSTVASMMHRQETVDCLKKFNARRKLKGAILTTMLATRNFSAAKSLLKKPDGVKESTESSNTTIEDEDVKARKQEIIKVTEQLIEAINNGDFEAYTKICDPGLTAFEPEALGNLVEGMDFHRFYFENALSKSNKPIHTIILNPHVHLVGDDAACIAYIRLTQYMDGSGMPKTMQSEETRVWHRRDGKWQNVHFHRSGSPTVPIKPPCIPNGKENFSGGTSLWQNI

SIK2 = SIK2 (Homo sapiens, UniProt Q9H0K1)
CHUK = molecular target: T1, CHUK (Homo sapiens, UniProt O15111)
T1 sequence (O15111 1-745): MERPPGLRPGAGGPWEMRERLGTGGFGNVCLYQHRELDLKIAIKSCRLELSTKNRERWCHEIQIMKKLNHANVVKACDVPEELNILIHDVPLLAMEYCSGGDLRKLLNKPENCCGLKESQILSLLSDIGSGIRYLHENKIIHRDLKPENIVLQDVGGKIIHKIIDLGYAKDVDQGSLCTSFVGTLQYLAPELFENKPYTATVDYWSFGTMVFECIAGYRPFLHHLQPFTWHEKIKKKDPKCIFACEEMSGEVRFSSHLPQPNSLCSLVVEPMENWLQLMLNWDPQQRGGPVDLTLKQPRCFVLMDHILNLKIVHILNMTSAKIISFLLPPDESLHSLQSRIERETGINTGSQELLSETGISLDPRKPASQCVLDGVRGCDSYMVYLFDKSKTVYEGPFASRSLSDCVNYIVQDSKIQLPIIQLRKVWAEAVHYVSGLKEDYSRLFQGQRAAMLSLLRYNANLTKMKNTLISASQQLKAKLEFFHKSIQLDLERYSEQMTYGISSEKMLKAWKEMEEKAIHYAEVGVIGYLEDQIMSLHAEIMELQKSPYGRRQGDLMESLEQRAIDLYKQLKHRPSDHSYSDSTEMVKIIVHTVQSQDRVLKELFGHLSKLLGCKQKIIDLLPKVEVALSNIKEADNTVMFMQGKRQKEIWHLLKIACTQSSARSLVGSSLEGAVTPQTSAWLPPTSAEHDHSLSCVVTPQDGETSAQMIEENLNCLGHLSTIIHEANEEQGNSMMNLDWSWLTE

CAMK2G = CAMK2G (Homo sapiens, UniProt Q13555)
Sequence of CAMK2G (Q13555 whole entry): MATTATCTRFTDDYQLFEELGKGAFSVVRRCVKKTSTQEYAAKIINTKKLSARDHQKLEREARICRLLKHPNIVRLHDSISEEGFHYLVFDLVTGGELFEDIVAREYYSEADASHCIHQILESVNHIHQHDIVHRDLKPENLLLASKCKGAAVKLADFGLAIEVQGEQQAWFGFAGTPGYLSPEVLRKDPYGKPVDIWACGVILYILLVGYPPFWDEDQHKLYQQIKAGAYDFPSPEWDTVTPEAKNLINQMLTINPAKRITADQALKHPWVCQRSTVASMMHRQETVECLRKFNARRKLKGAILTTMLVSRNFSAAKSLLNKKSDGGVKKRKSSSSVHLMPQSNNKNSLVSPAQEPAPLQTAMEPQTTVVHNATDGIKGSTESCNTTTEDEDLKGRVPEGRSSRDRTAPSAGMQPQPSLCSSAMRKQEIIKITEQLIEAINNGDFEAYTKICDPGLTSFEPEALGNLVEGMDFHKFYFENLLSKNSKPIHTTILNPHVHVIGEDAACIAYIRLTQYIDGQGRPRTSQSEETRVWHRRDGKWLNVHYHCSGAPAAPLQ

ABL2 = ABL2 (Homo sapiens, UniProt P42684)
Sequence of ABL2 (P42684 whole entry): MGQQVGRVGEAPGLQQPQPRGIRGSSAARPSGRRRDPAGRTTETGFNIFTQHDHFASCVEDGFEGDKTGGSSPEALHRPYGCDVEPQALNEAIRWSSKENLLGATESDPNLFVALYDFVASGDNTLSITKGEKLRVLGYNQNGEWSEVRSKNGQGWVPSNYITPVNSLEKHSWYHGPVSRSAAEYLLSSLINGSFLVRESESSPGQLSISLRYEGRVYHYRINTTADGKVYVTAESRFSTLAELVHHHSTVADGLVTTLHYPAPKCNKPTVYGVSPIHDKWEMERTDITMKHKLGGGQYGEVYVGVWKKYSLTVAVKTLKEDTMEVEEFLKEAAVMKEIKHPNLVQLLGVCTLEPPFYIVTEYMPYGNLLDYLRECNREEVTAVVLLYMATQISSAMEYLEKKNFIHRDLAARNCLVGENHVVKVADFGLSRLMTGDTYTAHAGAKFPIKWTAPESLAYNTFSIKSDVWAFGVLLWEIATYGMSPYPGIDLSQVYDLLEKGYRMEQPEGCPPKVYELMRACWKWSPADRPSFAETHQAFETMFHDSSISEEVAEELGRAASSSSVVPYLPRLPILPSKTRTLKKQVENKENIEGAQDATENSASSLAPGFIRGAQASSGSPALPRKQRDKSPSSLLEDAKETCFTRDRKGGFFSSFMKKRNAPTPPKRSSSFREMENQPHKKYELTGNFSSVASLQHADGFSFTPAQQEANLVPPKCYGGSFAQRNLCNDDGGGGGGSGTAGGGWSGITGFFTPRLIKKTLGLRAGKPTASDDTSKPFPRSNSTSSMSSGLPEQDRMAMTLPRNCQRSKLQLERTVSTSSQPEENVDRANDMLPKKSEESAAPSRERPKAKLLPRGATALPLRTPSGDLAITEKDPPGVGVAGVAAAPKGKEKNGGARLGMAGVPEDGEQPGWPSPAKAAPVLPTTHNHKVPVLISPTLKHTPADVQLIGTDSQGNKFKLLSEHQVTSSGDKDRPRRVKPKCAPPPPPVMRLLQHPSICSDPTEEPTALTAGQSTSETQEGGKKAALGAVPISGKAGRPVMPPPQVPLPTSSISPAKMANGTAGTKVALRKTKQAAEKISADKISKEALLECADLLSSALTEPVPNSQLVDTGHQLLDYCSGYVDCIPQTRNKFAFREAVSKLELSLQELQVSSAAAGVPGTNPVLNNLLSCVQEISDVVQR

MARK2 = MARK2 (Homo sapiens, UniProt Q7KZI7)
Sequence of MARK2 (Q7KZI7 whole entry): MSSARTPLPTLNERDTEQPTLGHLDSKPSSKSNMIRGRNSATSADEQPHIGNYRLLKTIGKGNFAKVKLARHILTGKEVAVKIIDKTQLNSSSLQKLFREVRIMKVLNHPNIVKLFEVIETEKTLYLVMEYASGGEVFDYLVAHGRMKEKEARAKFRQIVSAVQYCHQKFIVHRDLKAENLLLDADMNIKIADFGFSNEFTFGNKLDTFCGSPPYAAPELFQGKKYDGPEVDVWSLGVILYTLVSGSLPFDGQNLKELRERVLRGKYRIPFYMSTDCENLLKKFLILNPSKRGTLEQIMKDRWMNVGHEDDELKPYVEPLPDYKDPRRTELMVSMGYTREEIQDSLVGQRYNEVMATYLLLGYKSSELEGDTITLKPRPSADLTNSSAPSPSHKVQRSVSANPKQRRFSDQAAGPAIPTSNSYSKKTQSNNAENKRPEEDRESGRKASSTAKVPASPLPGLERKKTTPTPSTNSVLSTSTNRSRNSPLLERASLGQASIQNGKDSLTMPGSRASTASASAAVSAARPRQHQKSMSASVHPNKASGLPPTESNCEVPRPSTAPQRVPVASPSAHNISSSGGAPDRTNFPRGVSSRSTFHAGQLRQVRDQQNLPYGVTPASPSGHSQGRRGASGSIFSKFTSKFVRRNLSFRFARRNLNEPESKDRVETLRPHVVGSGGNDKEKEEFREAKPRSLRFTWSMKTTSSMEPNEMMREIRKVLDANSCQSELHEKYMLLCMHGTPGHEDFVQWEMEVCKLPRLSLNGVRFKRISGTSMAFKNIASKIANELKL

MAP3K4 = MAP3K4 (Homo sapiens, UniProt Q9Y6R4)
PHKG2 = molecular target: T2, PHKG2 (Homo sapiens, UniProt P15735)
T2 sequence (P15735 1-406): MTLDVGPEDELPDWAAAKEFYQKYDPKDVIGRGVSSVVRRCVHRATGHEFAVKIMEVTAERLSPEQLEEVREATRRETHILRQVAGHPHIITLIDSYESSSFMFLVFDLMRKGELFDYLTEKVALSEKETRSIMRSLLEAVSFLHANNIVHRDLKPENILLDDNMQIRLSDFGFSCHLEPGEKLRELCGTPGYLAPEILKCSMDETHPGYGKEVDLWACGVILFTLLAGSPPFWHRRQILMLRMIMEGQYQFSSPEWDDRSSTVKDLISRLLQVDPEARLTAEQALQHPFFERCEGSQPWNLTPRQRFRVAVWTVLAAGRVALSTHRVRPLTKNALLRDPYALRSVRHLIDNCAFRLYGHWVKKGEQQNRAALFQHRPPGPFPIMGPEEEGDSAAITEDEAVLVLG

KIAA0999 = KIAA0999 (Homo sapiens, UniProt Q9Y2K2)
PIP4K2A = molecular target: T3, PIP4K2A (Homo sapiens, UniProt P48426)
T3 sequence (P48426 1-406): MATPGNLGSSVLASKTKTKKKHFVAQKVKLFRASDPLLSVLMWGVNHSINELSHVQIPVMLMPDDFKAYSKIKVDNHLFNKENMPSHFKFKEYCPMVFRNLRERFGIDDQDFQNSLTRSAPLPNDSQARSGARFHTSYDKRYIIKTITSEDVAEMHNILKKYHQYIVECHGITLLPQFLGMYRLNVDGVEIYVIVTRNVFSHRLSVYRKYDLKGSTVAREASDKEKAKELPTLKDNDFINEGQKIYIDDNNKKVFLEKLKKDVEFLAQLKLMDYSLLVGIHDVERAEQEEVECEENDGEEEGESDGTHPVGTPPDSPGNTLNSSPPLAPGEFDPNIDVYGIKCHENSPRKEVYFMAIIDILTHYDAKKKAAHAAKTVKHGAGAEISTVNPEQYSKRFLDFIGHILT

FYN = FYN (Homo sapiens, UniProt P06241)

Sequence of PIP5K3 (Q9Y2I7 whole entry): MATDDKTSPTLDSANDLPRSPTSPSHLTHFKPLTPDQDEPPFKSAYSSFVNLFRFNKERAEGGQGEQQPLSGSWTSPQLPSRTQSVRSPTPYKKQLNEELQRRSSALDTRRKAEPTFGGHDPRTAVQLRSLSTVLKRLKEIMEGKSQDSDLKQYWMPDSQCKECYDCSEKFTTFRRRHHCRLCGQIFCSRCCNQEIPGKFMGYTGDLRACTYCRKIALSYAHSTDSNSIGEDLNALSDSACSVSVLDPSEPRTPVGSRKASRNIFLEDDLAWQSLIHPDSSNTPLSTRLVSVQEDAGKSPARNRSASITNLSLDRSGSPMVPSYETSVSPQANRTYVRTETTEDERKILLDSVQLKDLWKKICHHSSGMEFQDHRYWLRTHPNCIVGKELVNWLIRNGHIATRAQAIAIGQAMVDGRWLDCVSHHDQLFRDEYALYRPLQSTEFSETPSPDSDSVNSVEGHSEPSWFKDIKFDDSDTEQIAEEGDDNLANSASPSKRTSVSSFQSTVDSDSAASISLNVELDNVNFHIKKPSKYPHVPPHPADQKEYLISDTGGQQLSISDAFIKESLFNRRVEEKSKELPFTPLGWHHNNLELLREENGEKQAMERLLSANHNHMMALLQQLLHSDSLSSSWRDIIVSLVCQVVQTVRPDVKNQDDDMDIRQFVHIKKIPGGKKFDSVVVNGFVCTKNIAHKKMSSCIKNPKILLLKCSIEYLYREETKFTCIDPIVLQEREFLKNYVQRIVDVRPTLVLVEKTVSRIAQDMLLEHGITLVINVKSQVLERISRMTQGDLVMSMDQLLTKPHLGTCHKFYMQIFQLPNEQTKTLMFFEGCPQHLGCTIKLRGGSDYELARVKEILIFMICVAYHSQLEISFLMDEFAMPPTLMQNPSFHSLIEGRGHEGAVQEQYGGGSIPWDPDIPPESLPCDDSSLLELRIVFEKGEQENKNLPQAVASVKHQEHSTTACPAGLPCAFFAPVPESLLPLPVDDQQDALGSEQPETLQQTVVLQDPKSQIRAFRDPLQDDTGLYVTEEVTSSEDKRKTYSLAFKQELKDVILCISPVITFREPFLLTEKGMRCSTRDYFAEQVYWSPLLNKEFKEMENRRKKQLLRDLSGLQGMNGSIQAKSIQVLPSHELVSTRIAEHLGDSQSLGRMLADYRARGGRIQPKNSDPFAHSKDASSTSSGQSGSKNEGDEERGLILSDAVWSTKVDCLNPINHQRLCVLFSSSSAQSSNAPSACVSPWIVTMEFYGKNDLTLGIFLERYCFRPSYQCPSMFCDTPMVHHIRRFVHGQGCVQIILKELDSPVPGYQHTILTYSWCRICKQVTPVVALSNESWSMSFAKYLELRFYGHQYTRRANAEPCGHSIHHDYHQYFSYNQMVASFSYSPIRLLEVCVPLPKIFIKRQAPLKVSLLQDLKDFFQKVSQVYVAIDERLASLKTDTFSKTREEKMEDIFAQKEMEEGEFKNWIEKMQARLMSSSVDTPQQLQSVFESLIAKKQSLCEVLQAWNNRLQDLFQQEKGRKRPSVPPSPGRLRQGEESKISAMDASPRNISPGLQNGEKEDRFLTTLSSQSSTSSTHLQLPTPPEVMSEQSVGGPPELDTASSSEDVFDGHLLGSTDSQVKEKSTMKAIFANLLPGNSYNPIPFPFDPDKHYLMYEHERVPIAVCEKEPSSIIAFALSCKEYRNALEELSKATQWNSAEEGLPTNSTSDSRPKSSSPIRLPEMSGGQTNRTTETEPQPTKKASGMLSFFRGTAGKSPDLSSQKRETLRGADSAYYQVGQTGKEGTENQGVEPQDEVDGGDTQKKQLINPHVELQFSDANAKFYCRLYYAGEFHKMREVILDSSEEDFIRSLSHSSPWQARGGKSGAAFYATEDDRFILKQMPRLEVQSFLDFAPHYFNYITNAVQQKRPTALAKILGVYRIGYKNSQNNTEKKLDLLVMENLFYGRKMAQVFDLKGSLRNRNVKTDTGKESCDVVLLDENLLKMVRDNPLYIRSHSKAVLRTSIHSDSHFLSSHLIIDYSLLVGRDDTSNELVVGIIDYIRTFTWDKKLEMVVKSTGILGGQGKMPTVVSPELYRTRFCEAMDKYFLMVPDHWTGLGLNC

Structure (SMILES) | pIC50 (PIP5K3) | pIC50 (MAP4K5) | pIC50 (PTK2B) | pIC50 (CAMK2D) | pIC50 (SIK2) | pIC50 (CHUK) | pIC50 (CAMK2G) | pIC50 (ABL2) | pIC50 (MARK2) | pIC50 (MAP3K4) | pIC50 (PHKG2) | pIC50 (KIAA0999) | pIC50 (PIP4K2A) | pIC50 (FYN)
CN1CCN(c2ccc(Nc3ncc(C#N)c(Nc4ccccc4C(N)=O)n3)cc2)CC1.Cl [TCMDC-134116] | 5.89 and 5.82 | 6.55 and 6.54 | 7.11 and 7.01 | 5.72 and 6.02 | ≥ 7.49 and 7.46 | < 4.70 | 5.82 and 5.89 | 6.70 and 6.80 | 6.66 and 6.68 | 7.41 and 7.29 | 5.55 | 6.46 and 6.60 | 5.96 and 5.85 | 6.52 and 6.62
Cl.NCC1(c2nc(-c3ccc(Cl)c(O)c3)c(-c3ccncc3)[nH]2)CCCCC1 [TCMDC-141154] | 6.00 | 5.30 | < 4.70 | < 4.70 | 6.24 and 6.28 | < 4.70 | < 4.70 | 6.31 and 6.40 | < 4.70 | < 4.70 | < 4.70 | 7.18 and 7.29 | < 4.70 | 6.72 and 6.77
CN(C)CC(O)COc1ccc(Nc2ncc([N+](=O)[O-])c(Nc3ccccc3O)n2)cc1.O=C(O)C(F)(F)F (stereo not drawn) [TCMDC-141399] | 5.12 and 5.28 | 5.37 | 6.46 and 6.32 | < 4.70 | < 4.70 | < 4.70 | < 4.70 | 5.38 | 5.19 | 6.08 | < 4.70 | < 4.70 | 5.92 and 6.02 | < 4.70
